For data set [1], the system named is Cobetia marina (DSMZ4741) bacterial fouling layer. Nature of the data set: Cleaning of bacterial fouling layer on PA, fluorescence spectroscopy (DAPI / Concanavalin A). In kind it is cell-based. On the procedure: Bacterial Strain and Growth Conditions
To generate bacterial fouling layers, the marine bacterium Cobetia marina (DSMZ4741) was used in this study. The strain was purchased from the DSMZ culture collections, Germany. Sea Salt Peptone (SSP, all ingredients purchased from Sigma-Aldrich) (sea salt 20 g; peptone 18 g; deionised water 1,000 ml, pH 7.8) was used as the growth medium. The culture stock was maintained on Sea Salt Peptone Agar (SSPA, all ingredients purchased from Sigma-Aldrich) slants (sea salt 20 g; peptone 18 g; agar 30 g; deionised water 1,000 ml, pH 7.8). Prior to the experiments, the culture was grown in the SSP medium on a rotary shaker at 180 rpm at 28° C. for 20-22 h in order to obtain cells in the logphase.
Preparation of Bacterial Fouling Layers
The polyamid thin film substrates prepared on glass slides were conditioned for 24 h in artificial seawater (sea salt 20 g; deionised water 1,000 ml, pH 7.8) before being transferred to the bacterial cell suspensions. A freshly grown (logphase) bacterial suspension was prepared with an absorbance of 0.2 at a wavelength of 600 nm (DU 800, Beckman Coulter, Krefeld, Germany). The conditioned replicate slides (four for each assay) were placed into individual compartments of quadric petri dishes and 5 ml of the bacterial suspension was added thereby fully immersing the slides. The plates were placed in an incubator at 28° C. on a rotary shaker (90 rpm). After 1 h of incubation, the slides were transferred into new quadric petri dishes containing 5 ml of fresh SSP medium. The plates were incubated for another 4 h at 28° C. on a rotary shaker (90 rpm) for the attached bacteria to proliferate on the surface of the slides. At the end of the incubation, the slides were gently rinsed in artificial seawater to remove any non-adherent cells.
Cleaning Experiments with Bacterial Fouling Layers
Similar to the experiments using the multi-component molecular fouling layers, selected cleaning conditions (pH 12) and agents were tested for their ability to remove bacterial cells and EPS matrix. Additionally, the cleaning potential of the protease subtilisin (Subtilisin A type VIII from Bacillus licheniformis, 12 U/mg, Sigma-Aldrich) and methylglycine diacetic acid, sodium salt ([…], BASF SE) applied alone or in combination with the surfactant 2-propylheptanol, 6 EO, 1 PO (Lutensol⋅ XL 60, BASF SE) was evaluated. For that, the enzyme (100 μg/ml) and/or chelating agent (active concentration of 0.2%) and/or the surfactant (active concentration of 0.025%) were dissolved in 10 mM NaH2PO4 buffer (Sigma-Aldrich, pH 8.1). The bacterial fouling layers were immersed in the particular cleaning solution for 10 min at room temperature followed by rinsing in deionised water. After that, they were immediately fixed.
For fluorescence microscopy/spectroscopy and atomic force microscopy, bacterial fouling layers were fixed by transferring the respective slides into quadric petri dishes containing 4% paraformaldehyde (Sigma-Aldrich). After incubation for 15 min, the layers were rinsed with deionised water and dried by nitrogen.
For fluorescence staining, the slides were placed into custom-made incubation chambers in order to avoid backside staining. To stain the EPS matrix, Alexa 488-conjugated Concanavalin A (Molecular Probes, distributed by Invitrogen, Netherlands) dissolved in 0.1 M sodium bicarbonate (SigmaAldrich) buffer (pH 8.3) was added for 1 h in the dark (25 μg/cm^2). After incubation, the solution was removed and samples were washed with phosphate buffered saline (PBS, Sigma-Aldrich) twice. For staining of bacterial cells, DAPI solution (dissolved in PBS) was applied to Concanavalin A-stained samples for 5 min in the dark (25 μg/cm^2). After removal of the solution, the layers were washed with deionised water twice. Samples were taken out of the incubation chambers and dried by nitrogen.
Quantification of Cleaning Efficiency by Fluorescence Spectroscopy […]

A short description of data set [2]: Dynamic contact angle on PA. In kind it is physicochemical. As to conditions: 0.2 g/l aqueous, 23° C. On the procedure:
(§1) Determination of the Dynamic Contact Angle
(§2) The dynamic contact angle was measured with a video based high velocity measuring instrument for contact angle determination of the type OCAH 200 of the company Dataphysics Instruments 5 GmbH, Raiffeisenstr. 34, Fildersstadt, on the spin-coated glass slides.
(§3) The surfactants according to the invention listed in Tables […] used in an aqueous solution at a concentration of 0.2 g/l.
(§4) The contact angel is constantly determined (60 times per second) at 23° C. during 10 seconds after application. Under these conditions the contact angel of water without added surfactant remains at approximately at 65°. The contact angle on PA of the aqueous solutions of the branched tridecylethoxylates drops to 10° to 33°. The contact angle on PES of the aqueous solutions of the branched tridecylethoxylates drops to 17° to 37°. A contact angle after 10 seconds below 30° is preferred.

Data set [3] is described as follows: Dynamic contact angle on PES. Format: physicochemical. Conditions: 0.2 g/l aqueous, 23° C. On the procedure: as §1, §2, §3, §4
Where [4] appears, read: 10 mM NaH2PO4 buffer pH 8.1, surfactant 0.025%, chelating agent 0.2%, enzyme 100 μg/ml, 10 min.

Regarding 2-Propylheptanol, 6 EO, 1 PO [Nr 18], the “Cleaning Performance, Cells (DAPI)” value is 31,8% in data set [1] (setting [4]) and 51,7% in data set [1] (0.025%, pH 12, 10 min). The “Cleaning Performance, Matrix (Concanavalin A)” value (“Cleaning Performance, Matrix” for short) in data set [1] (setting [4]) was 16,5%; in data set [1] (0.025%, pH 12, 10 min), 9,6%.
On to branched C13—OH, 7 EO [Nr 4], for which the Contact angle at 0.1 s in data set [2] (0.1 s) came to 48.2 °; in data set [3] (0.1 s), 45.0°. The Contact angle at 1 s in data set [2] (1.0 s) was determined as 32.3 °; in data set [3] (1.0 s), 34.8°. Further, the Contact angle at 10 s came out at 10.5 ° in data set [2] (10.0 s) and 17.9° in data set [3] (10.0 s).
On to 2-Propylheptanol, 6 EO [Nr 22], for which, in data set [1] (0.025%, pH 12, 10 min), the “Cleaning Performance, Cells (DAPI)” value is on record as 25,1% and the “Cleaning Performance, Matrix” value is 0,2%.
Regarding `CC(C(=O)[O-])N(CC(=O)[O-])CC(=O)[O-].[Na+].[Na+].[Na+]` (stereo not shown) [Methylglycine diacetic acid, sodium salt, reference compound], the “Cleaning Performance, Cells (DAPI)” value in data set [1] (setting [4]) is reported as 47,7%; in data set [1] (0.025%, pH 12, 10 min) it was 73,5%. The “Cleaning Performance, Matrix” value in data set [1] (setting [4]) is given as 42,5%; in data set [1] (0.025%, pH 12, 10 min), 42,5%.
In the case of “linear alkylbenzenesulfonate, sodium salt [Nr 41, reference compound]”, in data set [1] (0.025%, pH 12, 10 min), the “Cleaning Performance, Cells (DAPI)” value is 35,9% and the “Cleaning Performance, Matrix” value was 10,8%.
For 2-Propylheptanol, 6 EO, 5 PO [Nr 38] the same measures were 52,8% and 15,2%.

B1: Subtilisin: protease subtilisin (Subtilisin A type VIII from Bacillus licheniformis, 12 U/mg, Sigma-Aldrich) (protein, UniProt P00780 106-379, looked up)
Subtilisin Carlsberg: AQTVPYGIPLIKADKVQAQGFKGANVKVAVLDTGIQASHPDLNVVGGASFVAGEAYNTDGNGHGTHVAGTVAALDNTTGVLGVAPSVSLYAVKVLNSSGSGSYSGIVSGIEWATTNGMDVINMSLGGASGSTAMKQAVDNAYAKGVVVVAAAGNSGSSGNTNTIGYPAKYDSVIAVGAVDSNSNRASFSSVGAELEVMAPGAGVYSTYPTNTYATLNGTSMASPHVAGAAALILSKHPNLSASQVRNRLSSTATYLGSSFYYGKGLINVEAAAQ
For B1, in data set [1] (setting [4]), the “Cleaning Performance, Cells (DAPI)” value is given as 17,8% and the “Cleaning Performance, Matrix” value is reported as 10,5%.

The values are drawn from patent US10087399B2, “Use of alkoxylated non-ionic surfactants as additive in aqueous membrane cleaning compositions” (BASF SE, priority 2012, dated 2018).
